{
  "source": "patent US20260217668A1",
  "about": "“CRYSTALLINE FORMS OF A LPA1 ANTAGONIST” (Bristol-Myers Squibb Company, priority 2022, published 2026)",
  "test": "Moisture sorption isotherms",
  "assay_type": "physicochemical",
  "details": "moisture sorption at 25° C., 4 to 95% RH (FIG. 4)",
  "description": "Moisture sorption isotherms were collected in a TA Instrument VTI-SA+ Vapor Sorption Analyzer using approximately 270 mg of sample in a 250 μL ceramic pan. The sample was dried at 30° C. until the loss rate of 0.005 wt %/min was obtained for 10 minutes. The sample was tested at 25° C. and 4, 5, 15, 25, 35, 45, 50, 65, 75, 85, and 95% RH. Equilibration at each RH was reached when the rate of 0.01 wt %/min for 35 minutes was achieved or a maximum of 600 minutes.",
  "data": [
    {"smiles": "CCCN(C)C(=O)OCc1c(-c2ccc(O[C@H]3CCC[C@H](C(=O)O)C3)c(C)n2)nnn1C", "note": "[Form A]", "values": [
      {"measurement": "hygroscopicity", "value": "non-hygroscopicity"}
    ]}
  ]
}
